Substitutions are numbered along the chain they refer to. Like-named read-outs stand apart in the source and are kept apart here.
Key:
[1] = biological target: T1, purified mutant MGL (mut-MGLL 11-313 L179S L186S) (Homo sapiens, UniProt Q99685, L169S/L176S); test: MGL Enzyme Activity Assay (mutant MGL, 4MU-B substrate); type: biochemical; conditions: mutant MGL 5 nM, 4MU-B 10 μM, 37° C.; read-out: MGL mutant inh IC50
T1 construct: mut-MGLL 11-313 L179S L186S
T1 sequence (Q99685 1-303 L169S/L176S): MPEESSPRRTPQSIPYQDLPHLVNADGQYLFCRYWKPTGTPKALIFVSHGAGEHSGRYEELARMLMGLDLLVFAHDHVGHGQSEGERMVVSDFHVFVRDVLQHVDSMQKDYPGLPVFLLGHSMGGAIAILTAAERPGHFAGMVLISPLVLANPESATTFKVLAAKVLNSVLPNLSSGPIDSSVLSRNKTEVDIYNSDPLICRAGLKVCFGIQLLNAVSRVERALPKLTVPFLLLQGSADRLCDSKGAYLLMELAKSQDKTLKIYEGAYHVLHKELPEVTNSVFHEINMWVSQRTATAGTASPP
Protocol: (§1) All rate-based assays were performed in black 384-well polypropylene PCR microplates (Abgene) in a total volume of 30 μL. Substrate 4-methylumbelliferyl butyrate (4MU-B; Sigma) and either purified mutant MGL (mut-MGLL 11-313 L179S L186S) or purified wild type MGL (wt-MGLL 6H-11-313) were diluted separately into 20 mM PIPES buffer (pH=7.0), containing 150 mM NaCl and 0.001% Tween 20. Compounds of Formula (Ia) and (Ib) were pre-dispensed (50 nL) into the assay plate using a Cartesian Hummingbird prior to adding 4MU-B (25 μL of 1.2× solution to a final concentration of 10 μM) followed by enzyme (5 μL of a 6× solution to a final concentration of 5 nM) to initiate the reaction. Final compound concentrations ranged from 17 to 0.0003 μM. The fluorescence change due to 4MU-B cleavage was monitored with excitation and emission wavelengths of 335 and 440 nm, respectively, and a bandwidth of 10 nm (Safire^2, Tecan) at 37° C. for 5 min.
(§2) The IC50 values for compounds of Formula (Ia) or (Ib) were determined using Excel from a fit of the equation to the concentration-response plot of the fractional activity as a function of inhibitor concentration.

mutant MGL = biological target: T2, mutant MGL (Homo sapiens, UniProt Q99685, L169S/L176S); test: MGL ThermoFluor Assay - Mutant; type: binding
T2 construct: mut-MGLL 11-313 L179S L186S
T2 sequence (Q99685 1-303 L169S/L176S): T1 sequence (Q99685 1-303 L169S/L176S)
Protocol: The ThermoFluor (TF) assay is a 384-well plate-based binding assay that measures thermal stability of proteins^1,2. The experiments were carried out using instruments available from Johnson & Johnson Pharmaceutical Research & Development, LLC. TF dye used in all experiments was 1,8-ANS (Invitrogen: A-47). Final TF assay conditions used for MGL studies were 0.07 mg/ml of mutant MGL, 100 μM ANS, 200 mM NaCl, 0.001% Tween-20 in 50 mM PIPES (pH=7.0).
Screening compound plates contained 100% DMSO compound solutions at a single concentration. For follow-up concentration-response studies, compounds were arranged in a pre-dispensed plate (Greiner Bio-one: 781280), wherein compounds were serially diluted in 100% DMSO across 11 columns within a series. Columns 12 and 24 were used as DMSO reference and contained no compound. For both single and multiple compound concentration-repsonse experiments, the compound aliquots (46 nL) were robotically predispensed directly into 384-well black assay plates (Abgene: TF-0384/k) using the Hummingbird liquid handler. Following compound dispension, protein and dye solutions were added to achieve the final assay volume of 3 μL. The assay solutions were overlayed with 1 μL of silicone oil (Fluka, type DC 200: 85411) to prevent evaporation.
Bar-coded assay plates were robotically loaded onto a thermostatically controlled PCR-type thermal block and then heated from 40 to 90° C. degrees at a ramp-rate of 1° C./min for all experiments. Fluorescence was measured by continuous illumination with UV light (Hamamatsu LC6), supplied via fiber optics and filtered through a band-pass filter (380-400 nm; >6 OD cutoff). Fluorescence emission of the entire 384-well plate was detected by measuring light intensity using a CCD camera (Sensys, Roper Scientific) filtered to detect 500±25 nm, resulting in simultaneous and independent readings of all 384 wells. A single image with 20-sec exposure time was collected at each temperature, and the sum of the pixel intensity in a given area of the assay plate was recorded vs temperature and fit to standard equations to yield the Tm^1. • 1. Pantoliano, M. W., Petrella, E. C., Kwasnoski, J. D., Lobanov, V. S., Myslik, J., Graf, E., Carver, T., Asel, E., Springer, B. A., Lane, P., and Salemme, F. R. (2001) J Biomol Screen 6, 429-40. • 2. Matulis, D., Kranz, J. K., Salemme, F. R., and Todd, M. J. (2005) Biochemistry 44, 5258-66.
The Kd values for compounds of Formula (Ia) and (Ib) were determined from a fit of the equation to the concentration-response plot of the fractional activity as a function of Tm. For some experiments, quantitative NMR spectroscopy (qNMR) was used to measure concentration of the initial 100% DMSO compound solutions and, using the same fitting method, qKd values were determined.

[2] = biological target: T3, purified wild type MGL (wt-MGLL 6H-11-313) (Homo sapiens, UniProt Q99685); test: MGL Enzyme Activity Assay (wild type MGL, 4MU-B substrate); type: biochemical; conditions: wild type MGL 5 nM, 4MU-B 10 μM, 37° C.; read-out: MGL wild type inh IC50
T3 construct: wt-MGLL 6H-11-313; 6H (hexahistidine) (N)
T3 sequence (Q99685 1-303): T1 sequence (Q99685 1-303 L169S/L176S) with S169L, S176L
Protocol: as §1, §2

MGL = biological target: T4, MGL (Rattus norvegicus, UniProt Q8R431); test: 2-AG Accumulation Assay in rat brain homogenate; type: biochemical; conditions: compound @1 μM, 2-AG accumulation as percent of vehicle
T4 construct: one g rat brain was homogenized; from tissue; host or cells: rat brain homogenate
T4 sequence (Q8R431 1-303): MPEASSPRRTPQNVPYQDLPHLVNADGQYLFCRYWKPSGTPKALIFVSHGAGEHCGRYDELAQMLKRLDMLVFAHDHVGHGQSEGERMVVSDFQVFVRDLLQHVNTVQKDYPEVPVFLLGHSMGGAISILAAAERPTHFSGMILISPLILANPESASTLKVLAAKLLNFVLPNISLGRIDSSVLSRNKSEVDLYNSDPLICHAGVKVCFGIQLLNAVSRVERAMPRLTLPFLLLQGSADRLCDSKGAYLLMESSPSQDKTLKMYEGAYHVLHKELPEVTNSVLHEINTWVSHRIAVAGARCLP
Protocol: After a 15-min incubation time at 37° C., CaCl2 (final concentration=10 mM) was added and then incubated for 15 min at 37° C. in a total volume of 5 mL. The reactions were stopped with 6 mL organic solvent extraction solution of 2:1 chloroform/methanol. Accumulated 2-AG in the organic phase was measured by a HPLC/MS method, according to the following equation: percent vehicle=(2-AG accumulation in the presence of compound/2-AG accumulation in vehicle)×100.

[3] = mutant MGL 0.07 mg/ml, 1,8-ANS dye, read-out: MGL mutant ThermoFluor Kd
[4] = mutant MGL, compound concentration measured by qNMR, read-out: MGL mutant ThermoFluor qKd (using qNMR conc.)

| Structure (SMILES) | IC50 [1] [nM] | Kd (mutant MGL; [3]) [nM] | IC50 [2] [nM] | Rat Brain 2AG % VehCntrl (%) @1 μM (MGL) [%] | Kd (mutant MGL; [4]) [nM] |
| --- | --- | --- | --- | --- | --- |
| O=C(c1ccc(Cc2ccccc2)cc1)N1CC(N2CCN(c3ccccc3)C(=O)C2)C1 [Cpd 1, 4-(1-(4-benzylbenzoyl)azetidin-3-yl)-1-phenylpiperazin-2-one] | 5280 | 3330 | – | – | – |
| O=C(c1ccc(-c2ccccc2)cc1)N1CC(N2CCN(c3ccccc3)C(=O)C2)C1 [Cpd 2, 4-(1-([1,1′-biphenyl]-4-carbonyl)azetidin-3-yl)-1-phenylpiperazin-2-one] | 4240 | 19700 | – | – | – |
| O=C(c1ccc2c(ccn2-c2ccc(C(F)(F)F)cc2)c1)N1CC(N2CCN(c3ncccn3)C(=O)C2)C1 [Cpd 3, 1-Pyrimidin-2-yl-4-[1-({1-[4-(trifluoromethyl)phenyl]-1H-indol-5-yl}carbonyl)azetidin-3-yl]piperazin-2-one] | – | 39.8 | 6 | 418 | – |
| O=C(c1ccc2c(ccn2-c2ccc(F)cc2)c1)N1CC(N2CCN(c3nccs3)C(=O)C2)C1 [Cpd 5, 4-(1-{[1-(4-Fluorophenyl)-1H-indol-5-yl]carbonyl}azetidin-3-yl)-1-(1,3-thiazol-2-yl)piperazin-2-one] | – | – | 10 | 316 | 171 |
| O=C(c1ccc2c(ccn2-c2ccc(F)cc2)c1)N1CC(N2CCN(c3cscn3)C(=O)C2)C1 [Cpd 6, 4-(1-{[1-(4-Fluorophenyl)-1H-indol-5-yl]carbonyl}azetidin-3-yl)-1-(1,3-thiazol-4-yl)piperazin-2-one] | – | – | 29 | 302 | 621 |
| O=C(c1sc2cc(C(F)(F)F)ccc2c1Cl)N1CC(N2CCN(c3cscn3)C(=O)C2)C1 [Cpd 7, 4-(1-{[3-Chloro-6-(trifluoromethyl)-1-benzothiophen-2-yl]carbonyl}azetidin-3-yl)-1-(1,3-thiazol-4-yl)piperazin-2-one] | – | – | 67.2 | 155 | 186 |
| O=C(c1ccc2c(ccn2-c2ccc(F)cc2)c1)N1CC(N2CCC(=O)N(c3ncccn3)CC2)C1 [Cpd 20, 1-(1-{[1-(4-Fluorophenyl)-1H-indol-5-yl]carbonyl}azetidin-3-yl)-4-pyrimidin-2-yl-1,4-diazepan-5-one] | – | – | 248 | – | 282 |

Results, then the molecule that gave them:

| IC50 [1] [nM] | Kd (mutant MGL; [3]) [nM] | IC50 [2] [nM] | Rat Brain 2AG % VehCntrl (%) @1 μM (MGL) [%] | Kd (mutant MGL; [4]) [nM] | Structure (SMILES) |
| --- | --- | --- | --- | --- | --- |
| – | – | < 5 | – | 1 | O=C(c1ccc2c(ccn2-c2ccc(F)cc2)c1)N1CC(N2CCC(=O)N(c3nccs3)CC2)C1 [Cpd 21, 1-(1-{[1-(4-Fluorophenyl)-1H-indol-5-yl]carbonyl}azetidin-3-yl)-4-(1,3-thiazol-2-yl)-1,4-diazepan-5-one] |
| – | – | < 5 | – | 2.5 | O=C(c1ccc2nc(-c3ccccc3)oc2c1)N1CC(N2CCC(=O)N(c3nccs3)CC2)C1 [Cpd 22, 1-{1-[(2-Phenyl-1,3-benzoxazol-6-yl)carbonyl]azetidin-3-yl}-4-(1,3-thiazol-2-yl)-1,4-diazepan-5-one] |
| – | 714 | 568 | – | – | O=C(c1cc2ccc(C(F)(F)F)cc2s1)N1CC(N2CCN(c3ncccn3)CC2=O)C1 [Cpd 23, 4-Pyrimidin-2-yl-1-(1-{[6-(trifluoromethyl)-1-benzothiophen-2-yl]carbonyl}azetidin-3-yl)piperazin-2-one] |
| – | 433 | 37.9 | 155 | – | O=C(c1ccc2c(ccn2-c2ccc(C(F)(F)F)cc2)c1)N1CC(N2CCN(c3ncccn3)CC2=O)C1 [Cpd 24, 4-Pyrimidin-2-yl-1-[1-({1-[4-(trifluoromethyl)phenyl]-1H-indol-5-yl}carbonyl)azetidin-3-yl]piperazin-2-one] |
